According to patent publication US12083131B2 (priority 2014, dated 2024):

Legend:
[1] = in vivo; cited from earlier work
[2] = system: TBI; assay: Treatment of subjects with TBI at the starting dose; conditions: starting dose (29 μg/kg/hr), 11 subjects with TBI
[3] = system: SRSE; assay: Continuous infusion allopregnanolone under emergency-use INDs for SRSE
[4] = Other clinical studies and experience to date with intravenous allopregnanolone; conditions: all AEs reported to date
[5] = system: severe postpartum depression (PPD); assay: Clinical study of allopregnanolone injection in adult female patients with severe postpartum depression
[6] = system: essential tremor; assay: Clinical trial of allopregnanolone injection in essential tremor (Stage One placebo-controlled crossover, low-dose; Stage Two open-label, high-dose)

Row | SMILES | Exposure of breast-feeding infant [1] | SAEs at the starting dose [2] | Drug-related SAEs at the target/maximum level of exposure ([3]; 150 nM exposure, 6 subjects with SRSE, continuous infusion) | Drug-related serious adverse events at maintenance dose ([3]; 150 mcg/kg/hour, six subjects with SRSE) | AEs reported to date [4] | Response (relief from symptoms) after treatment ([5]; after treatment) | Clinical Global Impression-Improvement (CGI-I) scale ([5]; all four patients) | Remission as measured by HAM-D during the treatment period ([5]; all four patients) | Tolerability ([5]; all patients, on therapy or during the 30-day follow-up period) | Time to improvement of symptoms after treatment ([5]; four patients (e.g., within 24 hours, within 12 hours after treatment)) | Mean HAM-D score at baseline ([5]; four patients, baseline, >24.0 is severe) | Mean HAM-D score by the end of the treatment period ([5]; four patients, end of treatment period, below 7.0 is symptom-free) | Time to improvement in depression after administration ([5]; four women with severe PPD) [h] | Improvement in depression, number of women ([5]; women with severe PPD, intravenous administration) | Tolerability of the maintenance dose ([6]; 86 mcg/kg/hour, Stage One) | Adverse events reported ([6]; Stage One, arms not distinguished, one case each of phlebitis, somnolence, abnormal dreams, back pain, nasal congestion, headache, fatigue, nausea, two cases of dizziness) | Sedation scores versus placebo ([6]; conclusion of Stage One) | Measures of activity in essential tremor (accelerometer and TETRAS scores) versus placebo ([6]; conclusion of Stage One, maintenance dose 86 mcg/kg/hour)
1 | CC(C)c1cccc(C(C)C)c1O [propofol] | less than 0.1 % of the maternal dose | – | – | – | – | – | – | – | – | – | – | – | – | – | – | – | – | –
2 | Cc1ncc2n1-c1ccc(Cl)cc1C(c1ccccc1F)=NC2 [midazolam] | less than 0.1 % of the maternal dose | – | – | – | – | – | – | – | – | – | – | – | – | – | – | – | – | –
3 | CC(=O)[C@H]1CC[C@H]2[C@@H]3CC[C@H]4C[C@H](O)CC[C@]4(C)[C@H]3CC[C@]12C [allopregnanolone, 3 alpha-hydroxy-5 alpha-pregnan-20-one] | – | no SAEs reported | no drug-related SAEs reported | without any drug-related serious adverse events | mild and non-serious | sustained | consistent improvement | rapidly achieved remission | well-tolerated | one | 26.5 | 1.8 | ≤ 24 | four of four | good tolerability | 10 | no clear difference | no clear difference
